Measured values from publication PMC9964244, “Effects of Dimerization, Dendrimerization, and Chirality in p-BthTX-I Peptide Analogs on the Antibacterial Activity and Enzymatic Inhibition of the SARS-CoV-2 PL^pro Protein” (Pharmaceutics, 2023).
Converted amounts (≈) assume the structure as drawn. “And” between values parts separate entries of the source, which are not always exact repeats. Identical values can stand only once. Like-named read-outs stand apart in the source and are kept apart here. Bridge positions count the residues as written; N and C are the ends. Square brackets hold non-standard residues; d marks the D form. Ends that are not written are not given here. Peptide text beside a SMILES is read from it. I, II: the chains in the order shown.

What was measured:
[1] = biological target: T1, SARS-CoV-2 PL^pro (Severe acute respiratory syndrome coronavirus 2, UniProt P0DTD1); conditions: PL^pro from SARS-CoV-2, ref 19 (Freire et al., 2021), cited from earlier work; for Inhibition (%) at 10 µM: peptide 10 µM
T1 construct: made in house
Experimental: Table 3 PL^pro activity by peptide analogs of p-BThTX-I at the concentration of 10 μM and IC50 values. Representative concentration–response inhibition curves against PL^pro from SARS-CoV-2 are presented in the Supplementary Material (Figure S7). | column: Inhibition (%) at 10 µM; IC50 μM

[2] = Carboxyfluorescein leakage, vesicle permeabilization; conditions: 95% POPC / 5% POPG vesicles
Experimental: The permeabilization of lipid vesicles containing carboxyfluorescein was carried out using a spectrofluorometer model Fluorolog-3 FL3-122 from Horiba Jobin Yvon (Newark, NJ, USA) (dimers and tetramers) or in a spectrofluorometer model RF-1501 Shimadzu (Kyoto, Japan) (monomer). For RF-1501, the quantification of the fluorescence intensity was performed every 20 s. Two vesicle compositions were used: (1) 80% 1-palmitoyl-2-oleoyl-sn-glycero-3-phosphoethanolamine (POPE) and 20% 1-palmitoyl-2-oleoyl-sn-glycero- 3-phospho-(10-rac-glycerol) (POPG); and (2) 95% 1-palmitoyl-2-oleoyl-sn-glycero-3-phosphocholine (POPC) and 5% POPG. The percentage of leakage was obtained through the following equation:% release = (Fmeasured − Finitial)/(Ffinal − Finitial) × 100, where Ffinal is the average fluorescence value obtained after the addition of Triton, Finitial is the average of the initial values of the run before the addition of the peptide, and Fmeasured are the fluorescence values obtained at each point of the experiment.
Here, we evaluated two systems of membrane mimetics, including vesicles with a composition of 80% POPE and 20% POPG, and another with 95% POPC and 5% POPG. The first is widely used as a model of bacterial membranes, specifically of E. coli membrane. Membranes constituting POPC and POPG were used to mimic mammalian membranes due to the presence of choline-containing lipids in animal membranes.

[3] = system: P. aeruginosa ATCC 27853; test: MIC/MBC, broth microdilution and subculture on CA-MH agar; format: cell-based, Pseudomonas aeruginosa; parameters: key to Act (antibacterial activity): Bc, bactericidal; Bs, bacteriostatic; conditions: for Act (antibacterial activity): MBC/MIC ratio >4 suggests bacteriostatic; for MIC: broth microdilution; for MIC / MBC: triplicate, mode; for MBC: subculture on CA-MH agar, 37 °C, 24 h
Experimental: (§1) Bacterial isolates from the American Type Culture Collection (ATCC) were obtained from the Collection of Reference Bacteria on Health Surveillance, Oswaldo Cruz Foundation (FIOCRUZ) after phenotypic and molecular quality control and were registered at SISGEN under the number ADB556B. The minimum inhibitory concentration (MIC) was determined as previously described by Santos-Filho et al., 2021 [17], using the broth microdilution method. The MIC was the lowest concentration that inhibited microbial growth. […] MBC was defined as the lowest peptide concentration with no visible growth on the plate. […] The assay was performed in triplicate, and the values represent the mode of the obtained results.
(§2) Thus, to assess the relevance of the antimicrobial effect of p-Bth analogs, their Minimum Inhibitory Concentration (MIC) and Minimum Bactericidal Concentration (MBC) were analyzed against relevant bacteria. The evaluated strains were the Gram-positives: S. aureus ATCC 25923, S. epidermidis ATCC 35984, E. faecalis ATCC 29212, and E. faecium ATCC […] (Table 1); and the Gram-negatives: K. pneumoniae ATCC 700603, E. coli ATCC 25922, A. baumannii ATCC 19606, and P. aeruginosa ATCC 27853 (Table 2).

[4] = system: SARS-CoV-2; conditions: Vero cells; cited from earlier work
From the text: In December 2019, the first case of viral infection with a new coronavirus was reported in China, which was later named severe acute respiratory syndrome coronavirus 2 (SARS-CoV-2), and the disease caused by this was named coronavirus-2019 or COVID-19 by the WHO. This disease has taken on great proportions, causing a pandemic scenario and great global concern. Even with the improvements in disease control, there is still a need for new, specific antiviral therapeutic options. As antimicrobial peptides also have antiviral action, the L-dimer, D-dimer and L-tetramer, in addition to ...

[5] = system: E. coli ATCC 25922; test: MIC/MBC, broth microdilution and subculture on CA-MH agar; format: cell-based; parameters: key to Act (antibacterial activity): Bc, bactericidal; Bs, bacteriostatic; conditions: for Act (antibacterial activity): MBC/MIC ratio >4 suggests bacteriostatic; for MIC: broth microdilution; for MIC / MBC: triplicate, mode; for MBC: subculture on CA-MH agar, 37 °C, 24 h
Experimental: as §1, §2

[6] = system: E. faecalis ATCC 29212; test: as above; format: cell-based; parameters: key to Act (antibacterial activity): Bc, bactericidal; Bs, bacteriostatic; conditions: for Act (antibacterial activity): MBC/MIC ratio >4 suggests bacteriostatic; for MIC: broth microdilution; for MIC / MBC: triplicate, mode; for MBC: subculture on CA-MH agar, 37 °C, 24 h
Experimental: as §1, §2

[7] = system: S. epidermidis ATCC 35984; test: as above; format: cell-based; parameters: key to Act (antibacterial activity): Bc, bactericidal; Bs, bacteriostatic; conditions: for Act (antibacterial activity): MBC/MIC ratio >4 suggests bacteriostatic; for MIC: broth microdilution; for MIC / MBC: triplicate, mode; for MBC: subculture on CA-MH agar, 37 °C, 24 h
Experimental: as §1, §2

[8] = system: K. pneumoniae ATCC 700603; test: as above; format: cell-based, Klebsiella pneumoniae; parameters: key to Act (antibacterial activity): Bc, bactericidal; Bs, bacteriostatic; conditions: for Act (antibacterial activity): MBC/MIC ratio >4 suggests bacteriostatic; for MIC: broth microdilution; for MIC / MBC: triplicate, mode; for MBC: subculture on CA-MH agar, 37 °C, 24 h
Experimental: as §1, §2

[9] = system: A. baumannii ATCC 19606; test: as above; format: cell-based, Acinetobacter baumannii; parameters: key to Act (antibacterial activity): Bc, bactericidal; Bs, bacteriostatic; conditions: for Act (antibacterial activity): MBC/MIC ratio >4 suggests bacteriostatic; for MIC: broth microdilution; for MIC / MBC: triplicate, mode; for MBC: subculture on CA-MH agar, 37 °C, 24 h
Experimental: as §1, §2

[10] = system: E. faecium ATCC 700221; test: as above; format: cell-based, Enterococcus faecium; parameters: key to Act (antibacterial activity): Bc, bactericidal; Bs, bacteriostatic; conditions: for Act (antibacterial activity): MBC/MIC ratio >4 suggests bacteriostatic; for MIC: broth microdilution; for MIC / MBC: triplicate, mode; for MBC: subculture on CA-MH agar, 37 °C, 24 h
Experimental: as §1, §2

[11] = system: S. aureus ATCC 25923; test: as above; format: cell-based, Staphylococcus aureus; parameters: key to Act (antibacterial activity): Bc, bactericidal; Bs, bacteriostatic; conditions: for MIC: broth microdilution; for MIC / MBC: triplicate, mode; for MBC: subculture on CA-MH agar, 37 °C, 24 h
Experimental: as §1, §2

[12] = biological target: T1, SARS-CoV-2 PL^pro; test: PL^pro enzymatic inhibition assay; format: biochemical; conditions: PL^pro from SARS-CoV-2; for inhibition at 10 µM: peptide 10 µM; for IC50: two independent experiments

Compound | Inhibition (%) at 10 µM [1] | Act (antibacterial activity) [3] | MIC [3] | MBC [3] | percentage inhibition of SARS-CoV-2 infection [4] | Act (antibacterial activity) [5] | MIC [5] | MBC [5] | MIC [6] | MBC [6] | MIC [7] | MBC [7] | MIC [8] | MBC [8] | MIC [9] | MBC [9] | MIC [10] | MBC [10] | MIC [11] | MBC [11] | other results
CC(C)C[C@@H](NC(=O)[C@@H](Cc1c[nH]cn1)NC(=O)[C@@H](Cc1ccc(O)cc1)NC(=O)[C@@H](CCCNC(=N)N)NC(=O)[C@@H](Cc1ccc(O)cc1)NC(=O)[C@@H](CCCCN)NC(=O)[C@H](N)CCCCN)C(=O)N[C@H](CCCCN)C(=O)N1CCC[C@@H]1C(=O)N[C@H](Cc1ccccc1)C(=O)NCCCC[C@H](NC(=O)[C@@H](Cc1ccccc1)NC(=O)[C@H]1CCCN1C(=O)[C@@H](CCCCN)NC(=O)[C@@H](CC(C)C)NC(=O)[C@@H](Cc1c[nH]cn1)NC(=O)[C@@H](Cc1ccc(O)cc1)NC(=O)[C@@H](CCCNC(=N)N)NC(=O)[C@@H](Cc1ccc(O)cc1)NC(=O)[C@@H](CCCCN)NC(=O)[C@H](N)CCCCN)C(N)=O [D-dimer] (I: H-[dK][dK][dY][dR][dY][dH][dL][dK][dP][dF]K-NH2 / II: H-[dK][dK][dY][dR][dY][dH][dL][dK][dP][dF]; amide I:11-II:C; N-terminus assumed) | 96.35 ± 0.91% | Bc | 256 μg/mL and 89 µM | 512 µg/mL (≈ 178 µM) | 69% | Bc | 32 μg/mL and 11 µM | 32 µg/mL (≈ 11.2 µM) | 178 µM and 512 μg/mL | 512 µg/mL (≈ 178 µM) | 16 µg/mL | 16 µg/mL (≈ 5.58 µM) | 64 μg/mL and 22 µM | 128 µg/mL (≈ 44.6 µM) | 5 µM (≈ 14.3 µg/mL) | 64 µg/mL (≈ 22.3 µM) | 64 μg/mL and 22 µM | >256 µg/mL | 256 μg/mL and 89 µM | >512 µg/mL | fluorescein leakage ([2]; concentration not stated in the sentence (10 and 50 µM tested)): 20%; CF leakage ([2]; peptide 50 µM): 20%; Act (antibacterial activity) [6]: Bc; Act (antibacterial activity) [7]: Bc; Act (antibacterial activity) [8]: Bc; Act (antibacterial activity) [9]: Bc; Act (antibacterial activity) [10]: Bs
CC(C)C[C@@H](NC(=O)[C@@H](Cc1c[nH]cn1)NC(=O)[C@@H](Cc1ccc(O)cc1)NC(=O)[C@@H](CCCNC(=N)N)NC(=O)[C@@H](Cc1ccc(O)cc1)NC(=O)[C@@H](CCCCN)NC(=O)[C@H](N)CCCCN)C(=O)N[C@H](CCCCN)C(=O)N1CCC[C@@H]1C(=O)N[C@H](Cc1ccccc1)C(N)=O [D-monomer] (H-[dK][dK][dY][dR][dY][dH][dL][dK][dP][dF]-NH2) |  |  | >371 µM | >512 µg/mL |  |  | 185 µM (≈ 255 µg/mL) | 256 µg/mL (≈ 186 µM) | >371 µM | >512 µg/mL | >371 µM | >512 µg/mL | 371 µM (≈ 511 µg/mL) | 512 µg/mL (≈ 371 µM) | >371 µM | >512 µg/mL | >371 µM | >512 µg/mL | >371 µM | >512 µg/mL | inhibition at 10 µM [12]: 85 ± 3%; IC50 [12]: 3000 ± 1000 nM
CC(C)C[C@H](NC(=O)[C@H](Cc1c[nH]cn1)NC(=O)[C@H](Cc1ccc(O)cc1)NC(=O)[C@H](CCCNC(=N)N)NC(=O)[C@H](Cc1ccc(O)cc1)NC(=O)[C@H](CCCCN)NC(=O)[C@@H](N)CCCCN)C(=O)N[C@@H](CCCCN)C(=O)N1CCC[C@H]1C(=O)N[C@@H](Cc1ccccc1)C(N)=O [L-monomer] (H-KKYRYHLKPF-NH2) |  |  |  | >512 µg/mL |  |  | >371 µM | >512 µg/mL | >371 µM | >512 µg/mL | >371 µM | >512 µg/mL | >371 µM | >512 µg/mL | >371 µM | >512 µg/mL | >371 µM | >512 µg/mL | >371 µM | >512 µg/mL | inhibition at 10 µM [12]: 93.3%; IC50 [12]: 2100 ± 100 nM
I: KKYRYHLKPFKK-NH2 / II: KKYRYHLKPFK / III: KKYRYHLKPF / IV: KKYRYHLKPF (amide I:11-IV:C, I:12-II:C, II:11-III:C) [L-tetramer] | 98.40 ± 0.00% | Bc | 32 μg/mL and 5 µM | 64 µg/mL | 54% | Bs | 32 μg/mL and 5 µM | >128 µg/mL | 10 µM and 64 μg/mL | 128 µg/mL | 16 µg/mL | 32 µg/mL | 32 μg/mL and 5 µM | >128 µg/mL | 5 µM and 32 μg/mL | 64 µg/mL |  | 32 µg/mL | 64 μg/mL and 10 µM | 256 µg/mL | IC50 [1]: 1400 ± 20 nM; Act (antibacterial activity) [6]: Bc; Act (antibacterial activity) [7]: Bc; Act (antibacterial activity) [8]: Bs; Act (antibacterial activity) [9]: Bc; Act (antibacterial activity) [10]: Bc; Act (antibacterial activity) ([11]; MBC/MIC ratio >4 suggests bacteriostatic): Bc
